Like-named read-outs stand apart in the source and are kept apart here.
Experiments:
[1] = system: normal skin of CD Hairless male rats; format: in vivo, rat
Outline: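 Liposomal egg yolk phospholipid photosensitizer given as single i.v. tail-vein bolus at 1, 1.5 and 2 μmol/kg; skin spots irradiated with 532 nm laser (150 mW/cm^2, 150J, 1 cm) at 1, 6, 24, 48, 96 hrs post injection. Value is time of last observed skin response spot.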

[2] = system: uninjured coronary and iliac arteries; assay: Pig artery acute PDT experiments in uninjured arteries (acellularity); format: in vivo; conditions: 532 nm light, 55 J, 125 J/cm2, 250 mW
Method: (§1) Those photosensitizers showing excellent efficacy in the rat carotid artery model were evaluated in more detail in the pig coronary artery model (Waksman, R., Rodriguez, J. C., Robinson, K. A., Cipolla, G. D., Crocker, I. R., Scott, N. A. King, S. B., Wilcox, J. N., Circulation, 96, 1944-1952, 1997). If vascular PDT is to be proposed as a therapy to prevent restenosis in humans due to angioplasty or stenting, then it must first be shown to be effective in a large animal model such as the swine. Porcine coronary arteries are very similar to human coronary arteries with regard to size, neointima formation, and thrombosis in response to injury.
(§2) Photosensitizers were administered systemically (at doses typically 2-3.5 mg/kg body weight, in a soybean phospholipid formulation) as a slow bolus injection in the ear vein. Drug treatments were followed (1-4 hr later) by endovascular light treatment (50-250 J/cm^2 fluence and 100-300 mW/cm^2 irradiance) in uninjured coronary (50-250 J/cm^2 fluence and 100-300 mW/cm^2 irradiance) and iliac (50-350 J/cm^2 fluence and 100-450 mW/cm^2 irradiance) arteries. In another set of experiments, animals also received balloon injuries in the coronary arteries at the time of PDT treatment. Angioplasty injuries in 2 coronary arteries were performed. Vital signs and cardiovascular parameters such as ECG, HR, BP, were monitored together with arterio-angiograms for measurements of vessel patency.
For acute experiments done in uninjured arteries, 3-5 days after the PDT experiments, animals were sacrificed and serial sections of all relevant arteries (iliacs, & coronaries) were harvested in 10% formalin and processed for histological assessment. Results of PDT at this timepoint give us an insight into the selective cellular effects of PDT on VSMC and myofibroblasts which are known to be maximally proliferating and migrating at this same time in response to a vessel wall injury—such as an angioplasty.
For longer term efficacy experiments (14 days after the PDT experiments) animals were sacrificed and serial sections of all relevant arteries (coronaries only) were harvested in 10% formalin and processed for histological assessment. Representative arterial segments underwent parafin embedding and sectioning for Hemoxylin & Eosin and/or elastin staining. Slides were prepared for microscopy histological analysis of the (i) acute cellular responses and (ii) inhibition of neointima formation following treatment. Once prepared, the slides were analyzed via microscopy for histomorphometry and effects such as medial wall acellularity, arterial wall and surrounding tissue cell death and proliferation. […] The magnitude of the inhibition was greater than any other photosensitizer drug currently used by other groups in PDT (clinically or pre-clinically), and was on the order of that only previously seen with radiation in this model. Inhibition data is averaged over the injury length within the artery.

[3] = system: balloon-injured pig coronary arteries; assay: Pig coronary artery balloon injury model, 14 days (inhibition of neointima / intimal hyperplasia); format: in vivo; conditions: for average inhibition of intimal hyperplasia over the length of the injured artery: pig coronary arteries; for Intimal hyperplasia Inhibition (14 days) Av. over injury: pig coronary artery balloon injury, drug dose 3 mg/Kg, 532 nm light, 55 J, 125 J/cm2, 250 mW
Method: as §1
The swine model has been utilized in the preclinical evaluation of interventions to reduce restenosis for several reasons. Chief among these reasons are the similarities in (i) size and anatomy of the swine arteries to human arteries, that permits instrumentation and evaluation of results via catheters; and (ii) histopathological characteristics of the proliferative response following artery injury similar to that seen in humans. Furthermore, large animals including the swine have proven to be more predictive of success in reducing restenosis in humans than have small animal models. An extensive literature search (e.g., Weiner, B. H., et al. Circulation. 72:1081-1086,1985; Schwartz, R. S., et al. Circulation. 82:2190-2200, 1990; Vascular Brachytherapy, Veenendaal, The Netherlands:Nucletron B.V. 1996 pp.1-382) supports the notion that restenosis after balloon injury in porcine coronaries is the best model when compared to restenosis in humans. Therapies investigated in other species still must be confirmed in the porcine model. Several articles reviewing the relevant animal models for the study of restenosis have concluded that although imperfect, as are all animal models, the porcine model is still the best from the standpoint of similarity to human disease, ease of use, and cost (e.g., Schwartz, R. S., Murphy, J. G., Edwards, W. D., Camrud, A. R., Vlietstra, R. E., and Holmes, D. R. Restenosis after balloon angioplasty: A practical proliferative model in the porcine coronary arteries. Circulation. 82:2190-2200, 1990; Karas, S. P., Gravanis, M. B., Santoian, E. C., Robinson, K. A., and King, S. B., 3d Coronary intimal proliferation after balloon injury and stenting in swine: an animal model of restenosis. J.Am.Coll. Cardiology 20:467-474, 1992).
as §2
For longer term efficacy experiments (14 days after the PDT experiments) animals were sacrificed and serial sections of all relevant arteries (coronaries only) were harvested in 10% formalin and processed for histological assessment. Representative arterial segments underwent parafin embedding and sectioning for Hemoxylin & Eosin and/or elastin staining. Slides were prepared for microscopy histological analysis of the (i) acute cellular responses and (ii) inhibition of neointima formation following treatment. Once prepared, the slides were analyzed via microscopy for histomorphometry and effects such as medial wall acellularity, arterial wall and surrounding tissue cell death and proliferation. […]

[4] = Cardiovascular safety in pig coronary artery models (ECG, HR, BP); format: in vivo; conditions: doses exceeding 20 mg/Kg
Method: as §2

Compound	Normal skin Response (1 μmol) ([1]; Table 3, time of last skin spot observed post injection, 1 μmol, 532 nm laser) [h]	normal skin responses, time post drug injection ([1]; rats, drug dose 1 μmol/Kg) [h]	Acellularity (%) (3 days) ([2]; drug dose 1 mg/Kg)	Acellularity (%) (3 days) ([2]; drug dose 2 mg/Kg)	Acellularity (%) (3 days) ([2]; drug dose 3 mg/Kg)	average inhibition of intimal hyperplasia over the length of the injured artery [3] [%]	Intimal hyperplasia Inhibition (14 days) Av. over injury [3] [%]	cardiotoxicity in pig coronary artery models [4]	Normal skin Response (1 μmol) ([1]; rat, in vivo) [h]	average inhibition of intimal hyperplasia over the length of the injured artery ([3]; 3 mg/Kg, light fluence 125 J/cm^2) [%]
Gallium Chloride Mesoporphyrin Dimethyl Ester [Example 1]	48	48	50	70	100	> 80	>80	no cardiotoxicity was observed		
COC(=O)CCC1=C(C)c2cc3[n-]c(cc4nc(cc5[n-]c(cc1n2)c(CCC(=O)OC)c5C)C=C4C)cc3C.[Cl-].[Ga+3] [Example 4, Gallium Chloride Deuteroporphyrin Dimethyl Ester]			50	70	95	> 75	>70	no cardiotoxicity was observed	6	
CCC1=C(C)C2=[N+]3C1=Cc1c(C)c(CC)c4[n]1[Ga-2]31([Cl])[n]3c(c(C)c(CCC(=O)NC)c3=CC3=[N+]1C(=C4)C(C)=C3CCC(=O)NC)=C2 [Example 121, Gallium Chloride Mesoporphyrin N-methyl Amide]			45	75	95		>70	no cardiotoxicity was observed	6	> 75

Source: patent publication US6827926B2, “Metallotetrapyrrolic photosensitizing agents for use in photodynamic therapy” (Miravant Pharmaceuticals, Inc., priority 2001, dated 2004)
